# From patent US9573954B2, “Pyrazolopyrimidine compounds” (University Health Network, priority 2012, dated 2017)
# Key:
# human TTK = biological target: T1, human TTK (Homo sapiens, UniProt P33981); assay: TTK inhibition assay (indirect ELISA); format: biochemical; settings: 100 μM ATP; read-out: TTK IC50 Range
# T1 construct: Active TTK was purchased from Invitrogen as an amino terminal GST fusion of full length human TTK; purchased Invitrogen
# T1 sequence (P33981 1-857): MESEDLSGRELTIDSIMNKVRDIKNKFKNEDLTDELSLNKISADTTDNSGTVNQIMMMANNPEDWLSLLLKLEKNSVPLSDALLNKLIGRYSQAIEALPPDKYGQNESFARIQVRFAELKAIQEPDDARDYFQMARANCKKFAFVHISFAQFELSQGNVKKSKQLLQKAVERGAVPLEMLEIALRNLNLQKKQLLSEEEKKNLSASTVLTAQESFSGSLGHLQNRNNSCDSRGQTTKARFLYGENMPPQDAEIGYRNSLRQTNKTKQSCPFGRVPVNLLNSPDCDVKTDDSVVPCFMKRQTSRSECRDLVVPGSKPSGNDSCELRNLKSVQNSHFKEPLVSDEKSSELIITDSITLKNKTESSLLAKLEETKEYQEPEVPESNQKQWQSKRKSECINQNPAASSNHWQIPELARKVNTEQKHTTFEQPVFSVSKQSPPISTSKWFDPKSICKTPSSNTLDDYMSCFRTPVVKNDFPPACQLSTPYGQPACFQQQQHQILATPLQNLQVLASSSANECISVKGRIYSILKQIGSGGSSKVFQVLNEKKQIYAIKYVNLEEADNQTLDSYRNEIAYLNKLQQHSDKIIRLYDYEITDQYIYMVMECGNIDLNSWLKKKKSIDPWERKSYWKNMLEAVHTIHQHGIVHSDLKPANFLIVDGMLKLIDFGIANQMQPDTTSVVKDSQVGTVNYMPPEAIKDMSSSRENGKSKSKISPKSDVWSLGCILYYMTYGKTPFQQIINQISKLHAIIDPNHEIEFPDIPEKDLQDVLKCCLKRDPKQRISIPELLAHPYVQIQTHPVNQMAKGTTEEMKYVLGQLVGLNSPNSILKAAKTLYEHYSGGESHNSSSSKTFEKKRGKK
# Procedure, shortened: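 Activity detected by indirect ELISA after compounds sat with full-length GST-TTK for 5 min prior to starting the reaction with ATP. IC50 came from a four-parameter logistic curve of % inhibition, calculated against background and uninhibited control wells.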
# [1] = tested on: colon cancer cells (HCT116); assay: Cancer cell line growth inhibition, Sulforhodamine B assay, HCT116; format: cell-based; settings: Homo sapiens, HCT-116, HCT116 colon cancer cell line; read-out: Cancer Cell Line GI50 Range HCT116
# Experimental: (§1) Breast cancer cells (MDA-MB-231 and MDA-MB-468), colon cancer cells (HCT116) and ovarian cancer cells (PA-1 and OVCAR-3) were seeded (1000 to 4000 in 80 μl per well depending on the cell growth rate) into 96 well plates 24 hours before compound overlay. Compounds were prepared as 10 mM stock solutions in 100% DMSO which were diluted with DMEM (Dulbecco's Modified Eagle's Medium) cell growth Medium (Invitrogen, Burlington, ON, Canada) containing 10% FBS (Fetal Bovine Serum) to concentrations ranging from 50 nM to 250 μM. Aliquots (20 μl) from each concentration were overlaid to 80 μl of the pre-seeded cells in the 96 well plates to make final concentrations of 10 nM to 50 μM. The cells were cultured for 5 days before the Sulforhodamine B assay (SRB) was performed to determine the compound's cell growth inhibition activity.
# (§2) Sulforhodamine B (purchased from Sigma, Oakville, ON, Canada) is a water-soluble dye that binds to the basic amino acids of the cellular proteins. Thus, colorimetric measurement of the bound dye provides an estimate of the total protein mass that is related to the cell number. the cells are fixed in situ by gently aspirating off the culture media and adding 50 μl ice cold 10% Trichloroacetic Acid (TCA) per well and incubate at 4° C. for 30-60 min, The plates are washed with H2O five times and allowed to air dry for 5 min. Addition of 50 μl 0.4% (w/v) SRB solution in 1% (v/v) acetic acid to each well and incubation for 30 min at RT completes the staining reaction. Following staining, plates are washed four times with 1% acetic acid to remove unbound dye and then allowed to air dry for 5 min. The stain is solubilized with 100 μl of 10 mM Tris pH 10.5 per well. Absorbance is read at 570 nm.
# (§3) The percentage (%) of relative growth inhibition was calculated by comparing to DMSO treated only cells (100%). GI50's were determined for compounds with cytotoxic activity. The GI50 was calculated using GraphPad PRISM software (GraphPad Software, Inc., San Diego, Calif., USA).
# (§4) In Table 1 below, GI50 value ranges for compound examples against breast cancer cell lines (MDA-MB-468), colon cancer cell lines (HCT116) and ovarian cancer cell lines (PA-1) are given.
# In Table 2 below, GI50 value ranges for compound examples against breast cancer cell lines (MDA-MB-231), colon cancer cell lines (HCT116) and ovarian cancer cell lines (PA-1) are given.
# (§5) In Table 3 below, GI50 value ranges for compound examples against breast cancer cell lines (MDA-MB-468), colon cancer cell lines (HCT116) and ovarian cancer cell lines (OVCAR-3) are given.
# [2] = tested on: ovarian cancer cells (OVCAR-3); assay: Cancer cell line growth inhibition, Sulforhodamine B assay, OVCAR-3; format: cell-based; settings: Homo sapiens, OVCAR-3, OVCAR-3 ovarian cancer cell line; read-out: Cancer Cell Line GI50 Range OVCAR-3
# Experimental: as §1, §2, §3, §5
# [3] = tested on: breast cancer cells (MDA-MB-468); assay: Cancer cell line growth inhibition, Sulforhodamine B assay, MDA-MB-468; format: cell-based; settings: Homo sapiens, MDA-MB-468, MDA-MB-468 breast cancer cell line; read-out: Cancer Cell Line GI50 Range MDA-MB-468
# Experimental: as §1, §2, §3, §4, §5
SMILES,IC50 (human TTK) [nM],GI50 [1] [nM],GI50 [2] [nM],GI50 [3] [nM]
COc1cccc(Oc2cc(NCCN3CCOCC3)n3ncc(-c4ccc(C(=O)NC5CC5)c(C)c4)c3n2)c1 [Example C85],< 100,100 to 500,100 to 500,100 to 500
Cc1cc(-c2cnn3c(NCC4CCOCC4)cc(N4CCOC[C@H]4CO)nc23)ccc1C(=O)NC1CC1 [Example C87],< 100,100 to 500,> 500,100 to 500
Cc1cc(-c2cnn3c(NCC4CCOCC4)cc(NC4(CO)CCOCC4)nc23)ccc1C(=O)NC1CC1 [Example C88],< 100,> 500,> 500,100 to 500
Cc1cc(-c2cnn3c(NCC4CCOCC4)cc(N[C@H](CO)C4CCOCC4)nc23)ccc1C(=O)NC1CC1 [Example C89],< 100,100 to 500,> 500,> 500
CCO[C@H]1COC[C@@H]1Nc1cc(NCC2CCOCC2)n2ncc(-c3ccc(C(=O)NC4CC4)c(C)c3)c2n1 [Example C90],< 100,100 to 500,> 500,100 to 500
Cc1cc(-c2cnn3c(NCC4(CO)CCOCC4)cc(NC4CCCC4)nc23)ccc1C(=O)NC1CC1 [Example C92],< 100,100 to 500,> 500,> 500
Cc1cc(-c2cnn3c(NCC4(O)CCOCC4)cc(NC4CCOCC4)nc23)ccc1C(=O)NC1CC1 [Example C94],< 100,> 500,> 500,> 500
Cc1cc(-c2cnn3c(NCC4(O)CCOCC4)cc(NC4CCCC4)nc23)ccc1C(=O)NC1CC1 [Example C95],< 100,100 to 500,> 500,> 500
Cc1cc(-c2cnn3c(NCCN4CCOCC4)cc(Oc4cccc(N(C)C)c4)nc23)ccc1C(=O)NC1CC1 [Example C96],< 100,> 500,> 500,> 500
Cc1cc(-c2cnn3c(NCCN4CCOCC4)cc(Oc4cccc(Cl)c4)nc23)ccc1C(=O)NC1CC1 [Example C97],< 100,≤ 100,100 to 500,100 to 500
Cc1cc(-c2cnn3c(NCC4(O)CCOCC4)cc(Oc4cccnc4)nc23)ccc1C(=O)NC1CC1 [Example C98],< 100,100 to 500,> 500,> 500
Cc1cc(-c2cnn3c(NCC4(CO)CCOCC4)cc(Oc4cccnc4)nc23)ccc1C(=O)NC1CC1 [Example C99],< 100,100 to 500,> 500,> 500
Cc1cc(-c2cnn3c(NCC4CCOCC4)cc(NCC4CC4)nc23)ccc1C(=O)NC1CC1 [Example C103],< 100,≤ 100,100 to 500,100 to 500
COC[C@@H](Nc1cc(NCC2CCOCC2)n2ncc(-c3ccc(C(=O)NC4CC4)c(C)c3)c2n1)C(C)C [Example C104],< 100,≤ 100,100 to 500,100 to 500
O=C(NC1CC1)c1ccc(-c2cnn3c(NCCN4CCOCC4)cc(Oc4ccccc4)nc23)cc1Cl [Example C105],< 100,≤ 100,≤ 100,≤ 100
Cc1cc(-c2cnn3c(NCC4CCOCC4)cc(N[C@H]4COC[C@H]4O)nc23)ccc1C(=O)NC1CC1 [Example C107],< 100,100 to 500,> 500,100 to 500
COCCNc1cc(N[C@H]2CCCC[C@H]2O)nc2c(-c3ccc(C(=O)NC4CC4)c(C)c3)cnn12 [Example C108],< 100,≤ 100,≤ 100,100 to 500
Cc1cc(-c2cnn3c(NCC4CCOCC4)cc(NC4CCC4)nc23)ccc1C(=O)NC1CC1 [Example C109],< 100,≤ 100,100 to 500,100 to 500
Cc1cc(-c2cnn3c(NCC4CCOCC4)cc(N[C@H](C(N)=O)C(C)C)nc23)ccc1C(=O)NC1CC1 [Example C111],< 100,100 to 500,100 to 500,100 to 500
